# Source: patent US7416744B2, “Extracts, compounds and pharmaceutical compositions having anti-diabetic activity and their use” (priority 2000, dated 2008)
# Columns and labels:
# male ZDF rats [1] = test: Chronic study: daily oral dosing, food intake (incl. regression after withdrawal); type: in vivo, rat
# Excerpt: (§1) The animals used for this study were 30 male ZDF rats and 6 male lean ZDF rats obtained from Gmi (Indianapolis, Ind., USA). The rats arrived at 6 weeks of age. The acute study was undertaken when the rats were 7 weeks old and the chronic study started when the rats were 9 weeks old.
# (§2) After a wash-out of 9 days after the acute dose, the rats were retained in the same treatment groups for the chronic study. […] For the pair-feeding, rats were individually matched. Pair-fed rats together with controls were dosed with water daily. Rats were dosed daily at ca 9.30 AM. The initial doses were 120 mg/kg (high dose) and 60 mg/kg (low dose).
# (§3) Food and water intake were measured daily. Bodyweights were measured twice weekly. Blood samples were taken for determination of glucose, insulin and leptin. Oral glucose tolerance was also measured.
# (§4) Chronic Study—The compound (1) was made up in water. Animals were dosed at the appropriate rate daily by oral gavage. Control animals received water alone at the rate of 1 ml/kg. Doses were administered at ca 10 AM each day for a total of 30 days.
# (§5) On Day 7 of the dosing procedure the dose levels of groups B & D were reduced to 60 mg/kg and 30 mg/kg due to concerns over that food intake suppression might be too great. The dosing procedure remained the same and animals were dosed for a further 23 days (30 days dosing in total).
# (§6) Daily food and water intake of each rat was measured by weight. Any spilled food was also collected and weighed so that an accurate estimate of food consumption could be made.
# (§7) In order to determine the potential long-term effects of The compound (1), the measurement of food and water intake were continued following withdrawal of treatment.
# male ZDF rats [2] = test: Chronic study: water intake; type: in vivo, rat
# Protocol: as §2, §3, §4, §5, §6, §7
# male ZDF rats [3] = test: Acute study: single oral dose, dose-response, food intake; type: in vivo, rat
# Excerpt: as §1
# This was a single dose, dose-response study in ZDF rats. The 30 ZDF rats were allocated to one of 5 groups so that there were 6 rats in each group. In addition there were 6 untreated lean ZDF rats. All of the rats were housed individually. The acute dose of the compound as given by oral gavage at 9.30 AM. Control ZDF and lean rats received water. Food intake was measured over the periods 9.30-16.00 (daytime) and 16.00-9.30 (night-time) for 48 hours.
# Six days prior to the single dose administration the rats were allocated to individual cages and were provided with food and water ad libitum. Four days prior to dose administration, 50 g of food was placed in each cage. Then two days prior to dose administration at ca 9.30 and 16.00 hours the food remaining was weighed and replaced with a further 50 g.
# Acute Study—The compound (1) was made up in water. Animals were administered with a single oral dose of The compound (1) at the appropriate rate. Control animals received water alone at the rate of 1 ml/kg. The compound (1) was administered at ca 9.30 AM.
# as §6
# male ZDF rats [4] = test: Chronic study: bodyweight; type: in vivo, rat
# Protocol: as §2, §3, §4, §5
# The bodyweight of each rat was measured twice weekly throughout the course of the study.
# male ZDF rats [5] = test: Chronic study: blood glucose concentration in fasted rats; type: in vivo, rat; settings: 5 h fast
# Protocol: as §2, §4, §5
# (§8) For measurement of blood glucose levels, a 20 μl sample of blood was taken from the tail vein whilst animals were in a fed state. A further 100 μl sample of blood was taken and the plasma separated by centrifugation (5000 rpm, 5 minutes). Plasma samples were then analysed for insulin and leptin using rat insulin or leptin ELISA kits (Crystal Chem Inc, PO Box 60225, Chicago, Ill. 60660, USA). Blood glucose, insulin and leptin levels were determined at approximately weekly intervals.
# Fasted glucose, insulin and leptin levels were determined in an identical manner but animals were fasted for 5 hours prior to samples being taken.
# male ZDF rats [6] = test: Chronic study: oral glucose tolerance test (OGTT); type: in vivo, rat; settings: day 9, oral 2 g/kg glucose load
# Protocol: Oral glucose tolerance was measured at 9 days following treatment (chronic study). Animals were fasted for 5 hours prior to the start of the OGTT. Animals were treated with glucose diluted in water at a rate of 2 g/kg ([…]). Blood samples were taken at 0, 30, 60 90 and 120 minutes. Glucose concentrations were determined by mixing blood samples with 0.38 ml of haemolysis reagent. A duplicate 20 μl aliquots of this mixture was taken for each individual sample and placed in an assay tray. To each well was added 180 μl aliquots of Trinders glucose reagent. The samples were mixed and then left for approximately 30 minutes. Samples were then analysed automatically using a SpectraMax 250 and SoftMax Pro software (Molecular devices Corporation, 1311 Orleans Drive, Sunnyvale, Calif. 94089, USA). The results were converted into glucose concentration values using Prism software, version 3.0 (GraphPad Software Inc, San Diego, Calif. USA)
# The OGTT was repeated after 30 days treatment. The procedure was identical except that the pair-fed rats were each given 6 g of food at 7 AM with food being withdrawn at 9 AM for 5 hours.
# Blood samples for insulin were obtained at 30 minutes prior to and 60 minutes post glucose load.
# Oral glucose tolerance was determined after 8 days and after 29 days of treatment, i.e. on day 9 and day 30. Rats were fasted for 5 hours prior to receiving an oral 2 g/kg glucose load.
# male ZDF rats [7] = test: Chronic study: blood glucose concentration in fed rats; type: in vivo, rat
# Protocol: as §2, §4, §5, §8
# normal rats = settings: administered orally; previously shown; cited from earlier work
# [8] = 120 mg/kg and 60 mg/kg daily oral
smiles,measurement,setting,value
"C/C=C(\C)C(=O)O[C@@H]1CC2C(CC=C3C[C@@H](OC4CC(OC)C(OC5CC(OC)C(OC6OC(C)C(O)C(OC)C6O)C(C)O5)C(C)O4)CC[C@@]32C)[C@@]2(O)CC[C@H](C(C)=O)[C@@]12C (stereo partly drawn) [compound (1), 3-0-[-β-D-thevetopyranosyl-(1-4)-β-D-cymaropyranosyl-(1-4)-β-D-cymaropyranosyl]-12β-0-tigloyloxy-14-hydroxy-14β-pregn-50-en-20-one]",daytime food intake over the first 7 days,male ZDF rats [1]; [8],increasing effect
same,time until full effect on night-time food intake apparent,male ZDF rats [1]; [8],2 days
same,"appetite suppression, overall conclusion",male ZDF rats [1]; ZDF male rats,powerful appetite suppressant
same,effectiveness on food intake reduction over the period 7-14 days,male ZDF rats [1]; after dose reduction to 60 and 30 mg/kg,small reduction in the effectiveness
same,rebound hyperphagia on withdrawal of the drug,male ZDF rats [1]; after end of chronic dosing,did not lead to a rebound hyperphagia
same,reduction in food intake after 7 days,male ZDF rats [1]; both dose levels (120 and 60 mg/kg daily oral),around 50%
same,food intake after 14 days,"male ZDF rats [1]; both groups, 60 and 30 mg/kg",stabilised
same,pharmacological tolerance to food intake reduction,male ZDF rats [1]; chronic dosing,no indication of tolerance
same,food intake over the treatment period,"male ZDF rats [1]; chronic dosing, overall",marked reduction
same,"food intake after withdrawal of drug treatment, relative to control ZDF rats",male ZDF rats [1]; monitored for a further 17 days after withdrawal,only a small loss of efficacy
same,water intake after withdrawal of the treatment,"male ZDF rats [2]; after 30 days treatment, previously treated rats",rose slightly
same,time after withdrawal before blood glucose concentration and water intake approached that of the diabetic controls,male ZDF rats [2]; after end of chronic dosing,approximately 2 weeks
same,diabetic state by water intake after 66 days,"male ZDF rats [2]; after withdrawal, versus untreated controls",not as diabetic as the untreated controls
same,time for water intake to be reduced to the level in the lean controls,"male ZDF rats [2]; high dose (120 or 60 mg/kg/day) or low dose (60 or 30 mg/kg/day), maintained throughout dosing",≤ 4 days
same,food intake for the period 24-48 hours past a single oral dose,"male ZDF rats [3]; 20-160 mg/kg, daytime and night-time",reduced (both daytime and night-time) in a dose-related manner
same,food intake in the second day (significance),male ZDF rats [3]; single oral dose 80 mg/kg,significant
same,food intake in the second day (significance),male ZDF rats [3]; single oral dose 160 mg/kg,significant
same,night-time food intake compared with lean rats,male ZDF rats [3]; single oral dose 160 mg/kg,the same as the lean rats
same,food intake in the first 24 hours (significance),male ZDF rats [3]; single oral dose 160 mg/kg (only dose significant),Significant reduction
same,onset of effect on food intake,male ZDF rats [3]; single oral dose given at 09.30,slow in onset
same,daytime food intake over the 7 hour period post-dosing,"male ZDF rats [3]; single oral dose, dose range 20-160 mg/kg",no significant effect
same,night-time food intake,"male ZDF rats [3]; single oral dose, dose range 20-160 mg/kg, first night",dose-related reduction
same,duration of response to a single dose,"male ZDF rats [3]; single oral dose, effects seen during second day",long
same,growth rate after 14 days,male ZDF rats [4]; chronic dosing,higher growth rate than the control ZDF rats
same,growth rate over the first 3 weeks of treatment relative to ZDF controls,"male ZDF rats [4]; chronic dosing, both doses",dose-related decrease in the growth rate
same,bodyweight plateau level,"male ZDF rats [4]; chronic study, ZDF controls plateaued at 360-370 g",more than 400 g
same,bodyweight by the end of the treatment period versus ZDF controls,male ZDF rats [4]; high dose (120 then 60 mg/kg),the same weight
same,bodyweight by the end of the treatment period versus ZDF controls,male ZDF rats [4]; low dose (60 then 30 mg/kg),heavier than the controls
same,body weight about 2 weeks after withdrawal versus ZDF controls,male ZDF rats [4]; previously treated rats,significantly greater
same,fasted blood glucose concentration versus ZDF controls,male ZDF rats [5]; after 8 days treatment,significantly lower
same,fasted blood glucose concentration versus lean rats,male ZDF rats [5]; after 8 days treatment,did not differ significantly
same,fasted blood glucose concentration versus ZDF controls,male ZDF rats [5]; after 29 days treatment,significantly lower
same,fasted blood glucose concentration versus lean rats,male ZDF rats [5]; after 29 days treatment,did not differ significantly
same,oral glucose tolerance,male ZDF rats [6],only marginally impaired relative to lean
same,"treatment of established diabetes, overall conclusion",male ZDF rats [7]; ZDF male rats,effective treatment
same,blood glucose concentration in fed rats,male ZDF rats [7]; after 7 days of treatment,reduction in the blood glucose concentration from the diabetic level to a similar concentration as in lean littermates
same,blood glucose concentration in fed rats after withdrawal of therapy,male ZDF rats [7]; after withdrawal,steadily increased
same,"glycaemic status (plasma glucose, glucose tolerance, water intake)","male ZDF rats [7]; chronic study, overall",substantial improvements in glycaemic status
same,glycaemia in fed rats during therapy,male ZDF rats [7]; until withdrawal of therapy,Normal glycaemia was maintained
same,food intake in normal rats,normal rats,reduce food intake
